Key:
Format in all cases: biochemical
Conditions in all cases: residual activity, 5 μM inhibitor, Km ATP
ALK(h) = target: T1, ALK(h) (Homo sapiens, UniProt Q9UM73); assay: KinaseProfiler panel: ALK(h)
T1 construct: purchased Merck-Millipore (KinaseProfiler panel service)
Experimental: (§1) Kinase selectivity was performed on a panel of 58 recombinant protein kinases. The assays were performed in the presence of 5 μM inhibitor at the respective Km ATP for each kinase, using the KinaseProfiler panel service (Merck-Millipore). Residual activity measured in the presence of […] inhibitor is expressed as the percent of activity determined in the absence of inhibitor.

Aurora-A(h) = target: T2, Aurora-A(h) (Homo sapiens, UniProt O14965); assay: KinaseProfiler panel: Aurora-A(h)
T2 construct: purchased Merck-Millipore (KinaseProfiler panel service)
Experimental: as §1

GSK3β(h) = target: T3, GSK3β(h) (Homo sapiens, UniProt P49841); assay: KinaseProfiler panel: GSK3β(h)
T3 construct: purchased Merck-Millipore (KinaseProfiler panel service)
Experimental: as §1

CaMKIIδ(h) = target: T4, CaMKIIδ(h) (Homo sapiens, UniProt Q13557); assay: KinaseProfiler panel: CaMKIIδ(h)
T4 construct: purchased Merck-Millipore (KinaseProfiler panel service)
Experimental: as §1

Measured: activity at 5 µM

T2 sequence (O14965 whole entry): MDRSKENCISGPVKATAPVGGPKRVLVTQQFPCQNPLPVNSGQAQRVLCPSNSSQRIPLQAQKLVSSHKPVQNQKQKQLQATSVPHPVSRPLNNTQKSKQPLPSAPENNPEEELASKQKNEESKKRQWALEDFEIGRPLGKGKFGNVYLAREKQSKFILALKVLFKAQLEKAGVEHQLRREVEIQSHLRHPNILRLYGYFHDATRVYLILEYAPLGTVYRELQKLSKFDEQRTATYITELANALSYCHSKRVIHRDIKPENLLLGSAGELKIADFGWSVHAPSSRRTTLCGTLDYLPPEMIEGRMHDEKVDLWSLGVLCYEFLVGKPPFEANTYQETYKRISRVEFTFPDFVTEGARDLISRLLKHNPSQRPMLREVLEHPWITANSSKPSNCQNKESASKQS
T1 sequence (Q9UM73 19-1620): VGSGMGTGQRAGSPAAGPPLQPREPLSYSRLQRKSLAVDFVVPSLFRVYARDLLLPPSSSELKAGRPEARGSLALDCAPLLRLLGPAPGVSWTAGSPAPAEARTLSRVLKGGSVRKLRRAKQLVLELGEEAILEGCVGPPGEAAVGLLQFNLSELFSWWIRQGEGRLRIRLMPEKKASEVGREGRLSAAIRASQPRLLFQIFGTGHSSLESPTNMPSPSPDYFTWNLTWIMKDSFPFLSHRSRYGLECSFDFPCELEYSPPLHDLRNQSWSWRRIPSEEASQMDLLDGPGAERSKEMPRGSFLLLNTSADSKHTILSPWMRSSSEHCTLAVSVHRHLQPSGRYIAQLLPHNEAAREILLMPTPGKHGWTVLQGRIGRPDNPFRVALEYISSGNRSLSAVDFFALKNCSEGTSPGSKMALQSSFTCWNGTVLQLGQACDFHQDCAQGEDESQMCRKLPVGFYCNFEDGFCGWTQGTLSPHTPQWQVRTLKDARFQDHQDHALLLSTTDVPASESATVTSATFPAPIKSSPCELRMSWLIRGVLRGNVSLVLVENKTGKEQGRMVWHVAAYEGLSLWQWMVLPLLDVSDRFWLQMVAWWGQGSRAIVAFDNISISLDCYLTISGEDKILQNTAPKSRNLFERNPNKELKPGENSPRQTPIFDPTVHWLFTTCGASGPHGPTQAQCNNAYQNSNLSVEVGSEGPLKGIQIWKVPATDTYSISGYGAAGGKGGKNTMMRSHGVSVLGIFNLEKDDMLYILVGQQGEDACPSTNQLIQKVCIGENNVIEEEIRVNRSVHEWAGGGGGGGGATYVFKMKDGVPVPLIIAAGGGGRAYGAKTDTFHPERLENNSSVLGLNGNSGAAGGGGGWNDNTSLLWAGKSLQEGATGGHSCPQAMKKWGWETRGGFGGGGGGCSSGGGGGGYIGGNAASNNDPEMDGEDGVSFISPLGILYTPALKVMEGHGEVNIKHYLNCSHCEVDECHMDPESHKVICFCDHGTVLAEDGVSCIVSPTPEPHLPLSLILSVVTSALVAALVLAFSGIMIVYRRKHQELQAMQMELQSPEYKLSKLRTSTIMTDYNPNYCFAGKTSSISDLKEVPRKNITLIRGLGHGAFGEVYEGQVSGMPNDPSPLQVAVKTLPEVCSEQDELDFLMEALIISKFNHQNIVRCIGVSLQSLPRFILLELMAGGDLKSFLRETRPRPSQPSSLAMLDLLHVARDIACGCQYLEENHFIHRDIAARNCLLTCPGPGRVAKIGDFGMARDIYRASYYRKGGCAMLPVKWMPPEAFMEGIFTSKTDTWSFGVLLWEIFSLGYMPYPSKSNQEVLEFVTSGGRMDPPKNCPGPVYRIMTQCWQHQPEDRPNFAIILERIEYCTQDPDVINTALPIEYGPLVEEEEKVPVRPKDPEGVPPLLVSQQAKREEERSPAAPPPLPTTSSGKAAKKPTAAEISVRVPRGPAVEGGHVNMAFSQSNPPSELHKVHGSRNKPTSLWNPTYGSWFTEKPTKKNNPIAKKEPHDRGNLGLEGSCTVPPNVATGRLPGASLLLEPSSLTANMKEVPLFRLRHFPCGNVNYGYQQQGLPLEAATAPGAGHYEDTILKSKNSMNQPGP
T4 sequence (Q13557 whole entry): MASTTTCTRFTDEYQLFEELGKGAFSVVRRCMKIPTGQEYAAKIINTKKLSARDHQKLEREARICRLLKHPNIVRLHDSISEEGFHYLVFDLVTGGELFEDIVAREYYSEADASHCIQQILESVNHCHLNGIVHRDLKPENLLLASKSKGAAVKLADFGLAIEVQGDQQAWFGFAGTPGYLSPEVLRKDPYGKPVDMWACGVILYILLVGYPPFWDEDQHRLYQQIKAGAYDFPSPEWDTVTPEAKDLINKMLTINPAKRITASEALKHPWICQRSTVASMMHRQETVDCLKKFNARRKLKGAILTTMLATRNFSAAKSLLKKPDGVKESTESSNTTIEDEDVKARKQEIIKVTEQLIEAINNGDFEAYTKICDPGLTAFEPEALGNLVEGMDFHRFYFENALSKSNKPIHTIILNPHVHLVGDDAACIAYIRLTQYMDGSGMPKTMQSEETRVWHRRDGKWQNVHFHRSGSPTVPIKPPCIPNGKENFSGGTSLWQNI
T3 sequence (P49841 whole entry): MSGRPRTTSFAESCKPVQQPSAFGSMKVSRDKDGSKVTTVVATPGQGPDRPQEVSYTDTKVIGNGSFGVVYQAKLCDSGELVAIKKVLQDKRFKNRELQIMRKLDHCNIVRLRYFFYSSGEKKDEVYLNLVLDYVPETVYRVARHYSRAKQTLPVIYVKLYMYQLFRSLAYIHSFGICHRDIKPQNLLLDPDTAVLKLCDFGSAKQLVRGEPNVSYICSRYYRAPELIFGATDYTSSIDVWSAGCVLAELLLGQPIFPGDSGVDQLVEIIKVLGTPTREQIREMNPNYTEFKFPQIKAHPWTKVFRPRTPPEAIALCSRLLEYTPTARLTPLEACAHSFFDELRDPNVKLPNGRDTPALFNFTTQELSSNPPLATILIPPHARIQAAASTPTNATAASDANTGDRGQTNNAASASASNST

CC(C)(C)c1nc(-c2cccc(NS(=O)(=O)c3c(F)cccc3F)c2F)c(-c2ccnc(Nc3ccccc3)n2)s1 [Compound 1, N-(3-(2-(tert-butyl)-5-(2-(phenylamino)pyrimidin-4-yl)thiazol-4-yl)-2-fluorophenyl)-2,6-difluorobenzenesulfonamide]
≥ 50%: all assays above

Reference: patent publication US20190263796A1, “LIM KINASE INHIBITORS, PHARMACEUTICAL COMPOSITION AND METHOD OF USE IN LIMK-MEDIATED DISEASES” (CELLIPSE, priority 2016, published 2019)
